# Measured values published in paper PMC11259170, “Small-molecule probe for IBD risk variant GPR65 I231L alters cytokine signaling networks through positive allosteric modulation” (Science Advances, 2024).
# Read-outs that look alike come from different tables or passages of the source.
# Key:
# [1] = target: T1, hGPR65 (Homo sapiens, UniProt Q8IYL9); test: cAMP detection (Lance Ultra), GPR65 KO HeLa reconstituted with hGPR65; 21K screen dose confirmation; assay type: cell-based; details: primary hit validation
# T1 construct: expressed in transfected cells; host or cells: HeLa (ATCC CCL-2), lentiviral transduction, pLX317
# T1 sequence (Q8IYL9 whole entry): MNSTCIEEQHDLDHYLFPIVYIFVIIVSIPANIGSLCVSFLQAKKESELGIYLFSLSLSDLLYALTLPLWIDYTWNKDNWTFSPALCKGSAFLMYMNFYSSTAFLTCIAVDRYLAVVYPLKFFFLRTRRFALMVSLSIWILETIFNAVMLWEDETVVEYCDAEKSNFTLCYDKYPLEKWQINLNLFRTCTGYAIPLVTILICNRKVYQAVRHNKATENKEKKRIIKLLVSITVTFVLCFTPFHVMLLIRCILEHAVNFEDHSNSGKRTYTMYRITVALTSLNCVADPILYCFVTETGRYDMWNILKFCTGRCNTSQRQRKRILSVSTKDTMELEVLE
# Procedure: (§1) The Lance Ultra cAMP Kit (PerkinElmer, TRF0264) was used for cAMP detection, and included the following reagents: ULight anti-cAMP antibody, Eu-cAMP tracer, 7.5% BSA Stabilizer solution, and cAMP detection buffer. Stimulation buffer was prepared as described by the kit manufacturer as follows: Hanks buffered saline solution (HBSS, Life Technologies, 14025-126) containing 0.5 mM IBMX (3-isobutyl-1-methylxanthine, Sigma-Aldrich, I7018) and buffered with 1 M Hepes (15630-080). Stimulation buffer was then adjusted to pH 7.1 using 12 N HCl. HeLa cells were lifted using Versene and then suspended at 2.5 × 10^5 cells/ml in stimulation buffer. Cells were then plated at 20 μl per well (5000 cells per well) in white, opaque OptiPlate 384-well MicroPlates (PerkinElmer, 6007299) using a Thermo Fisher Scientific Combi liquid dispenser. Compounds, stored at 5 mM in DMSO for the primary screen, or in a range of concentrations from 39 μM to 20 mM for dose curves, were transferred by the CyBio CyBi-Well Vario pin transfer tool with 100-nl pins (V&P FP1NS50H, 50-nl slot, 0.457-mm diameter, hydrophobic coated), into each assay well, 100 nl per well for a final assay concentration of 25 μM for the primary screen, or 195 nM to 100 μM for dose curves. Assay plates were then incubated at RT for 30 min. Eu-cAMP tracer was diluted 1:33 into detection buffer and the final solution then distributed into assay wells, 5 μl per well. ULight anti-cAMP antibody was diluted 1:100 into detection buffer, then distributed into assay wells, also 5 μl per well. Assay plates were then incubated at RT in the dark for 1 hour. Eu-cAMP tracer and Förster resonance energy transfer (FRET) emissions were then read using a PerkinElmer EnVision Multimode plate reader (ENVISION21040010), exciting each well at 320 nm [UV2 (TRF) 320 filter] and reading emissions at 615 nm (Europium 615 filter) and 665 nm (APC665 filter). Data analysis was performed using Genedata Screener and GraphPad Prism.
# (§2) HeLa KO cell lines were generated using the px330 plasmid CRISPR system as previously described ([18]). Briefly, HeLa cells were transfected with a Cas9 vector containing a gene-specific single-guide RNA to target the GPR65 coding exon. Forty-eight to 72 hours after transfection, single clones were obtained through limiting dilution and then sequenced to validate the KO. Reconstituted cell lines were produced by transducing KO cells with empty lentivirus or lentivirus containing hGPR65 or mGPR65. After 48 hours, cells were treated with puromycin (3 μg/ml; InvivoGen, ant-pr-1) and resistant cells were used in experiments.
# [2] = system: GPR65 KO HeLa cells + pLX empty vector; test: cAMP detection, GPR65 KO HeLa + empty pLX vector (null control); assay type: cell-based, human
# Procedure: as §1, §2
# [3] = target: T1, hGPR65; test: cAMP detection in HeLa expression cell line, hGPR65; assay type: cell-based; details: for Emax: HeLa, relative to 100uM forskolin (100%) and DMSO (0%), read-out: hGPR Max Activity %
# How it was run: (§3)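 Lentivirally transduced HeLa, V5-tagged GPCR, puromycin 3 μg/ml. 1500 cells/well, stimulation buffer pH 7.2, compound (10 mM DMSO stock), 30 min RT. Lyse, detection reagents 1 h dark RT. TR-FRET cAMP kit, ex 337, em 620/665.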
# [4] = target: T2, mGPR65 (Mus musculus, UniProt Q61038); test: cAMP detection in HeLa expression cell line, mGPR65; assay type: cell-based; details: for Emax: HeLa, relative to 100uM forskolin (100%) and DMSO (0%), read-out: mGPR Max Activity %
# T2 construct: expressed in transfected cells; host or cells: HeLa (ATCC CCL-2), lentiviral transduction, pLX317
# T2 sequence (Q61038 whole entry): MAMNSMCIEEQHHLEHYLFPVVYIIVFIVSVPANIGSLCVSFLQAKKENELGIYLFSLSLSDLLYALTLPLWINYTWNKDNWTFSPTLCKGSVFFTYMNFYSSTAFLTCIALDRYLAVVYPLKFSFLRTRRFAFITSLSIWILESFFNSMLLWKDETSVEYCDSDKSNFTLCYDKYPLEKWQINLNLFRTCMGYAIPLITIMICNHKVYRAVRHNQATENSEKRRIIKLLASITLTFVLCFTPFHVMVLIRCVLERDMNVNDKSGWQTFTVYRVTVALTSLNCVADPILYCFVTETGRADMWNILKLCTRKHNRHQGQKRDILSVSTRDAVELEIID
# How it was run: as §3
# [5] = target: T3, human GPR4 (hGPR4) (Homo sapiens, UniProt P46093); test: cAMP detection in HeLa expression cell line, hGPR4; assay type: cell-based; details: highest concentration tested
# T3 construct: expressed in transfected cells; host or cells: HeLa (ATCC CCL-2), lentiviral transduction, pLX317
# T3 sequence (P46093 whole entry): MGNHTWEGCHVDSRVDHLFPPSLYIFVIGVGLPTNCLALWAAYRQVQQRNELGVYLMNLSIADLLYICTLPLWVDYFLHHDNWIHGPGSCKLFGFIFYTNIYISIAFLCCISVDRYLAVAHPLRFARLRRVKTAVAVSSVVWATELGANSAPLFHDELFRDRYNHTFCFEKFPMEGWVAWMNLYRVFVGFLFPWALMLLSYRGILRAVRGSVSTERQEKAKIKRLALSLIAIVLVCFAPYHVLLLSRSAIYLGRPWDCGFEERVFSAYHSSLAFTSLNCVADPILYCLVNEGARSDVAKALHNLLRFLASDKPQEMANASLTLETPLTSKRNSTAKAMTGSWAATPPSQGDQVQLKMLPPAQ
# Procedure: HeLa stable expression cell lines were produced by lentiviral transduction. Briefly, lentiviral plasmids for each GPCR with a C-terminal V5 Tag ([…]) were made in a pLX317 backbone using competent Escherichia coli (New England Biolabs, C3050H). Lenti-X 293 T (Takara, 632810) cells were transfected with the lentiviral plasmids to produce virus. Low-passage HeLa cells (American Type Culture Collection, CCL-2) were then transduced with lentivirus. After 48 hours, HeLa cells were cultured under selection with puromycin (3 μg/ml) and allowed to recover and expand before storing stocks in liquid nitrogen.
# cAMP was measured in cells using the Lance Ultra cAMP Kit. HeLa cells were cultured under puromycin (3 μg/ml) selection. One day before the experiment, cells were seeded in T75 flasks and allowed to adhere overnight. On the day of the experiment, cells were washed twice with Dulbecco’s PBS and lifted using prewarmed 1× versene solution (Gibco, 15040066). Cells were counted in HBSS (Gibco, 14025092) and then resuspended in stimulation buffer prepared according to the manufacturer’s instructions and adjusted to pH 7.2 using 1 M sodium hydroxide. Cells were added to the plate at a density of 1500 cells per well in white opaque 384-well assay ready microplates containing 100 nl of 10 mM compound in DMSO. Cells were stimulated for 30 min at RT, then lysed and incubated with detection reagents for 1 hour in the dark at RT. Plates were read on BMG Labtech PHERAstar FSX (excitation, 337 nm; emission, 620 and 665 nm). Data analysis was performed using GraphPad Prism.
# [6] = system: human PBMCs; test: cAMP detection in human PBMCs; assay type: cell-based; details: 0 to 50 μM, 30 min, pH 7.2
# Procedure: Human blood samples were collected from healthy donors at the Blood Donor Center at Massachusetts General Hospital in compliance with all relevant ethical regulations and according to protocol 2018P001504 approved by the Mass General Brigham Institutional Review Board. Donors provided informed written consent. Human PBMCs were isolated by density gradient separation using Ficoll-Paque PLUS (VWR- GE Life Sciences, catalog no. 17144002), as previously described ([54]). Isolated PBMCs were incubated overnight in DMEM (10% FBS, 0.2% sodium bicarbonate, 1X Glutamax) at 37°C, 5% CO2. Human monocytes were isolated from an unpurified Buffy Coat using RosetteSep human monocyte enrichment cocktail (StemCell Technologies, 15068) and frozen same day in FBS with 10% DMSO.
# cAMP was measured in cells using the Lance Ultra cAMP Kit. Compound dose curves were prepared in an assay buffer, which was made according to the manufacturer’s guidelines using DMEM instead of HBSS. Assay buffer was adjusted to desired pH using 1 M HCl or NaOH. PBMCs were collected, centrifuged, and resuspended in assay buffer. Dose curves and cells were added to a white opaque OptiPlate (PerkinElmer, 6007290) at a density of 20,000 cells per well. […] Eu-cAMP tracer and FRET emissions were read using a PerkinElmer EnVision Multimode plate reader (ENVISION21040010). […]
# [7] = Solubility in phosphate buffer; assay type: physicochemical; details: read-out: Solubility
# [8] = Lipophilicity (logD); assay type: physicochemical; details: pH 7.4; pH7.4; read-out: LogD (pH7.4)
# [9] = target: T1, hGPR65; test: cAMP detection (Lance Ultra), GPR65 KO HeLa reconstituted with hGPR65; 21K screen dose confirmation; assay type: cell-based
# [10] = system: GFP-expressing HeLa cells; test: cAMP detection in HeLa expression cell line, GFP control; assay type: cell-based, human; details: Homo sapiens, HeLa, 2nd GFP column pair, NA = no activity
# How it was run: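 HeLa cells stably expressing C-terminally V5-tagged receptor or GFP (lentiviral, puromycin 3 μg/ml) stimulated at 1500 cells per well for 30 min at RT with compound (10 mM DMSO stock) in stimulation buffer at pH 7.2. cAMP detected by Lance Ultra TR-FRET after lysis and 1 h detection, excitation 337 nm, emission 620/665 nm.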
# [11] = Solubility remark in the Comments column of the SAR table; assay type: physicochemical
# Text: Supplement sciadv.adn2339_data_s1_to_s4.zip/sciadv.adn2339_data_s2.xlsx, sheet "SAR cAMP Assay"
# [12] = 1st hGPR column pair, NA = no activity
# [13] = 2nd hGPR column pair, NA = no activity
# [14] = 2nd mGPR column pair, NA = no activity
smiles,measurement,setting,value
"COCc1ccc(-c2cc(O)n3ncc(C(=O)Nc4ccc(C)cc4)c3n2)cc1 [BRD2813, COCc1ccc(cc1)-c1cc(O)n2ncc(C(=O)Nc3ccc(C)cc3)c2n1]",cAMP activity in hGPR65-expressing cells,[1],dose-dependent activity
same,EC50,"[2]; Homo sapiens, 0.5 h, HeLa GPR65 KO + pLX, pH 7.1, 30 min, normalized to DMSO and 100 μM forskolin",> 100000 nM
same,cAMP production in control cells,[2]; primary hit validation,without inducing cAMP production
same,Emax,[3]; [12],78.8%
same,Emax,[3]; [13],79.2%
same,EC50,"[3]; hGPR EC50 (uM), NA = no activity",0.866 µM
same,EC50,"[3]; hGPR EC50 (uM), pH 7.2, 30 min",1.2 µM
same,EC50,"[3]; hGPR EC50, NA = no activity",0.993 µM
same,EC50,"[3]; hGPR EC50, pH 7.2, 30 min",0.724 µM
same,Emax,[4]; [14],39.6%
same,Emax,[4]; NA = no activity,35.8%
same,EC50,"[4]; mGPR EC50 (uM), first pair of columns, pH 7.2, 30 min",0.942 µM
same,EC50,"[4]; mGPR EC50 (uM), second pair of columns, pH 7.2, 30 min",0.406 µM
same,EC50,"[4]; mGPR EC50 (uM), NA = no activity",0.693 µM
same,cAMP relative to DMSO in the hGPR4 cells,[5],decrease in cAMP
same,"cAMP production in human PBMCs, compared",[6],outperformed BTB09089
same,solubility,[7],< 1.56 µM
same,logD,[8],> 4.65
same,pH of greatest compound effect,"[9]; 0-50 μM, pH curves",between pH 7.1 and 7.3
same,"cAMP response, BRD2813 compared with BTB09089","[9]; 0 to 50 μM, pH 7.2",greater cAMP response
same,shift in the pH response curve of GPR65,"[9]; increasing concentrations, 0 to 50 μM",leftward shift
Cc1ccc(NC(=O)c2cnn3c(O)cc(-c4ccc(-c5ccccc5C(C)C)cc4)nc23)cc1 [BRD4665],EC50,"[3]; 1st hGPR column pair, NA = no activity, read-out: hGPR EC50",0.227 µM
same,EC50,"[3]; 2nd hGPR column pair, NA = no activity, read-out: hGPR EC50",0.152 µM
same,Emax,[3]; [12],76.3%
same,Emax,[3]; [13],79.6%
same,EC50,"[4]; 1st mGPR column pair, NA = no activity, read-out: mGPR EC50",0.787 µM
same,EC50,"[4]; 2nd mGPR column pair, NA = no activity, read-out: mGPR EC50",0.627 µM
same,Emax,[4]; [14],33.2%
same,Emax,[4]; NA = no activity,34.9%
same,EC50,[10],26400 nM
same,Emax,"[10]; relative to 100uM forskolin (100%) and DMSO (0%), read-out: GFP Max Activity %",12%
same,Comments (solubility),[11],Poor solubility.
